Measurements published in PMC6743422, “Preclinical disposition of MGS0274 besylate, a prodrug of a potent group II metabotropic glutamate receptor agonist MGS0008 for the treatment of schizophrenia” (Pharmacology Research & Perspectives, 2019).
Several values for one entry are separate records, joined by “and”; a condition that tells them apart may be missing. Equal entries are not always repeated. Entries after “also recorded” stand apart in the source; their conditions may differ.

How the values were obtained:
[1] = Pharmacokinetics of MGS0008 in rats (intravenous or oral); format: in vivo, rat; details: fasted male rats
Method: The pharmacokinetic profiles of MGS0008 and MGS0274 were investigated in fasted male Wistar rats (n = 3) and fed male cynomolgus monkeys (n = 4). Monkeys had been given 60 g of a primate diet (PS‐A; Oriental Yeast, Tokyo, Japan) one hour before administration. For intravenous administration, MGS0008 was dissolved in saline (pH7.4) and administered to rats (3 mg/kg) and monkeys (1 mg/kg). Blood samples were collected from the tail vein (rats) or the forelimb cephalic vein (monkeys) into tubes containing EDTA‐2K at 5, 15, and 30 minutes and at 1, 2, 4, 8, and 24 hours postdose for both species, and an additional sample was collected at 12 hours postdose for monkeys. Urine samples were collected until 48 hours at 24‐hour intervals (rats) or at 0‐ to 8‐hour, 8‐ to 24‐hour, and 24‐ to 48‐hour intervals (monkeys). The plasma or urine samples was mixed with acetonitrile/methanol (9:1, v/v) containing [^13C2 ^15N]MGS0008 and centrifuged. Aliquots of the supernatant were subjected to bioanalysis using LC‐MS/MS (see Table S1‐E). For oral administration, MGS0008 was dissolved in distilled water (rats) or 0.5% w/v methylcellulose 400 (monkeys) and administered to rats (3 mg/kg) and monkeys (1 mg/kg). MGS0274 besylate was suspended in 0.5% w/v methylcellulose 400 containing 0.1% v/v Tween 80 and administered to monkeys at a dose of 2.89 mg/kg (1‐mg equivalent of MGS0008/kg). Blood samples were collected from the tail vein (rats) or the forelimb cephalic vein (monkeys) into tubes containing EDTA‐2K at 30 minutes, 1, 1.5, 2, 4, 6, 8, and 24 hours postdose for rats, and 30 minutes, 1, 2, 4, 8, 12, and 24 hours postdose for monkeys. The plasma samples were mixed with acetonitrile/methanol (9:1, v/v) containing internal standards ([^13C2 ^15N]MGS0008 and MGS0039) and centrifuged. Aliquots of the supernatant were subjected to bioanalysis using LC‐MS/MS (see Tables S1‐E and F). In the study examining the tissue distribution of MGS0008 in rats (3 mg/kg), blood samples were collected from the posterior vena cava into tubes containing EDTA‐2K under isoflurane anesthesia at 1.5, 4, 6, or 24 hours postdose. Then, the animals were euthanized by exsanguination from the abdominal aorta; cerebrospinal fluid (CSF) samples were drawn from the spinal cord space in each animal. The plasma or CSF was mixed with acetonitrile/methanol (9:1, v/v) containing [^13C2 ^15N]MGS0008 and centrifuged. Aliquots of the supernatant were subjected to bioanalysis using LC‐MS/MS (see Table S1‐E).
The plasma concentration‐time profiles of MGS0008 and MGS0274 were analyzed using a non‐compartmental analysis method with pharmacokinetic analysis software Phoenix® WinNonlin® 6.2 or later (Certara, Princeton, NJ).

[2] = Pharmacokinetics after oral MGS0274 besylate in monkeys; format: in vivo, cynomolgus monkey; details: fed male monkeys, MGS0274 besylate oral 2.89 mg/kg
Method: The pharmacokinetic profiles of MGS0008 and MGS0274 were investigated in fasted male Wistar rats (n = 3) and fed male cynomolgus monkeys (n = 4). Monkeys had been given 60 g of a primate diet (PS‐A; Oriental Yeast, Tokyo, Japan) one hour before administration. For intravenous administration, MGS0008 was dissolved in saline (pH7.4) and administered to rats (3 mg/kg) and monkeys (1 mg/kg). Blood samples were collected from the tail vein (rats) or the forelimb cephalic vein (monkeys) into tubes containing EDTA‐2K at 5, 15, and 30 minutes and at 1, 2, 4, 8, and 24 hours postdose for both species, and an additional sample was collected at 12 hours postdose for monkeys. Urine samples were collected until 48 hours at 24‐hour intervals (rats) or at 0‐ to 8‐hour, 8‐ to 24‐hour, and 24‐ to 48‐hour intervals (monkeys). The plasma or urine samples was mixed with acetonitrile/methanol (9:1, v/v) containing [^13C2 ^15N]MGS0008 and centrifuged. Aliquots of the supernatant were subjected to bioanalysis using LC‐MS/MS (see Table S1‐E). For oral administration, MGS0008 was dissolved in distilled water (rats) or 0.5% w/v methylcellulose 400 (monkeys) and administered to rats (3 mg/kg) and monkeys (1 mg/kg). MGS0274 besylate was suspended in 0.5% w/v methylcellulose 400 containing 0.1% v/v Tween 80 and administered to monkeys at a dose of 2.89 mg/kg (1‐mg equivalent of MGS0008/kg). Blood samples were collected from the tail vein (rats) or the forelimb cephalic vein (monkeys) into tubes containing EDTA‐2K at 30 minutes, 1, 1.5, 2, 4, 6, 8, and 24 hours postdose for rats, and 30 minutes, 1, 2, 4, 8, 12, and 24 hours postdose for monkeys. The plasma samples were mixed with acetonitrile/methanol (9:1, v/v) containing internal standards ([^13C2 ^15N]MGS0008 and MGS0039) and centrifuged. Aliquots of the supernatant were subjected to bioanalysis using LC‐MS/MS (see Tables S1‐E and F). In the study examining the tissue distribution of MGS0008 in rats (3 mg/kg), blood samples were collected from the posterior vena cava into tubes containing EDTA‐2K under isoflurane anesthesia at 1.5, 4, 6, or 24 hours postdose. Then, the animals were euthanized by exsanguination from the abdominal aorta; cerebrospinal fluid (CSF) samples were drawn from the spinal cord space in each animal. The plasma or CSF was mixed with acetonitrile/methanol (9:1, v/v) containing [^13C2 ^15N]MGS0008 and centrifuged. Aliquots of the supernatant were subjected to bioanalysis using LC‐MS/MS (see Table S1‐E). The plasma concentration‐time profiles of MGS0008 and MGS0274 were analyzed using a non‐compartmental analysis method with pharmacokinetic analysis software Phoenix® WinNonlin® 6.2 or later (Certara, Princeton, NJ).

[3] = Wistar, rat, MGS0008 intravenous 3 mg/kg, plasma
[4] = Wistar, rat, MGS0008 oral 3 mg/kg, plasma
[5] = cynomolgus monkey, plasma, compound monitored MGS0274, mean of two animals

Cmax [2, 5]	Tmax [2, 5]	AUC(0-t) ([2]; cynomolgus monkey, plasma, compound monitored MGS0274, mean of two animals, read-out: AUC0–24h of MGS0274)	Structure (SMILES)	concentration at 24 h ([1]; Wistar, rat, plasma, other: intravenous or oral, MGS0008 intravenous or oral 3 mg/kg, below lower limit of quantification)	clearance ([1]; Wistar, rat, plasma, MGS0008 intravenous 3 mg/kg, mean ± SD (n = 3), read-out: CLtotal (converted))	Vd ([1]; Wistar, rat, plasma, MGS0008 intravenous 3 mg/kg, mean ± SD (n = 3), read-out: Vdss)	bioavailability ([1]; Wistar, rat, plasma, MGS0008 oral 3 mg/kg, AUC0-∞ oral / AUC0-∞ intravenous × 100)	CL renal ([1]; Wistar, rat, urine and plasma, MGS0008 intravenous 3 mg/kg)	AUC(0-inf) [1, 3]	half-life [1, 3]	AUC(0-inf) [1, 4]	Cmax [1, 4]	Tmax [1, 4]	half-life [1, 4]	Urinary excretion (unchanged form) ([1]; MGS0008 intravenous 3 mg/kg, within 48 hours, % of administered dose, 3 mg/kg)	vomiting [2]	MGS0274 in plasma ([2]; lower limit of quantification 1 ng/mL, 2.89 mg/kg)
			N[C@]1(C(=O)O)[C@H]2[C@@H](C[C@@H]1F)[C@@H]2C(=O)O [MGS0008, (1S,2S,3S,5R,6S)‐2‐amino‐3‐fluorobicyclo[3.1.0]hexane‐2,6‐dicarboxylic acid]	< 3 ng/mL	9.13 mL/min/kg	0.545 ± 0.0939 L/kg	78.1%	8.52 mL/min/kg	5480 ± 293 ng·h/mL	1.54 ± 0.06 h	4280 ± 478 ng·h/mL	1990 ± 64.3 ng/mL	1.17 ± 0.289 h	0.968 ± 0.031 h	93.2% and 93.2 ± 4.69%		
1.28 ng/mL	1 h	2.03 ng·h/mL	CC(C)[C@@H]1CC[C@@H](C)C[C@H]1OC(=O)O[C@@H](C)OC(=O)[C@H]1[C@@H]2C[C@H](F)[C@@](N)(C(=O)O)[C@@H]21.O=S(=O)(O)c1ccccc1 [MGS0274 besylate, (1S,2S,3S,5R,6S)‐2‐amino‐3‐fluoro‐6‐({(1S)‐1‐[({[(1R,2S,5R)‐5‐methyl‐2‐(propan‐2‐yl)cyclohexyl]oxy}carbonyl)oxy]ethoxy}carbonyl)bicyclo[3.1.0]hexane‐2‐carboxylic acid monobenzenesulfonate]													two of the four monkeys experienced vomiting	barely detectable; also recorded: barely detected
